# According to US11747325B2, “Bleomycin for mimicking the effect of ionizing radiations on T cells” (Novagray, priority 2018, dated 2023):
# Tests used:
# [1] = test system: T lymphocytes; test: Bleomycin-induced CD8 T-lymphocyte apoptosis, treatment 24 hours after blood cell culture (less than 50 hours contact), flow cytometry; format: cell-based, human; conditions: for T lymphocytes apoptosis rate, 24 hours after cell culture: staining 48 hours after treatment, same blood sample, 8 Gy control 28.2%
# Description: (§1) Blood samples were purchased from Etablissement Français du Sang (EFS) with the convention number 21PLER2016-0100 AV01. Blood samples were collected from healthy donors in 5 mL heparinized tubes without separation gel.
# (§2) Blood cells were grown in RPMI-1640 with glutamax (Fisher scientific, France) supplemented with 20% fetal calf serum (FCS) (EuroBio, France). Cells were maintained at 37° C. with 5% CO2 during the experiments.
# (§3) Bleomycin (EuroMedex) was solubilized in sterile MilliQ water at 50 mg/mL according to manufacturer instructions and stored at −80° C.
# (§4) Samples were then centrifuged for 5 min at 300 g. The pellets were resuspended in phosphate-buffered saline (PBS) containing 10 μl of anti-human CD8-FITC antibody (Becton Dickinson, USA) and incubated for 20 minutes at room temperature. Then, red blood cells were lysed by addition of 4 ml of lysis buffer diluted 1:10 in water (Becton Dickinson, USA). After another 20 minutes incubation time at room temperature, samples were centrifuged for 5 min at 300 g and the pellets were washed with 3 ml of PBS. Pellets were suspended in 200 μl of PBS containing 25 μg/ml of propidium iodide (Sigma, France) and 5 μl of RNAse A at 10 mg/ml (Qiagen, France). The samples were analyzed by flow cytometry within the next hours, using the CytoFlex (Beckman Coulter, USA). […]
# Two hundred microliters of blood were aliquoted into a 6-well plate containing 2 mL of RPMI-20% FCS, about 24 hours after blood collection. Bleomycin treatment, at the different concentrations, was performed 24 hours after blood cell culture by adding the Bleomycin directly into the wells. The staining for detecting apoptosis was performed as described above and 48 hours after the bleomycin treatment (thus, after less than 50 hours of contact of bleomycin with the cells). • Treatment during blood cell culture:
# (§5) Two treatment conditions were tested on the same blood sample: blood cells were treated by several bleomycin concentrations 24 hours after cell culture or from the start of cell culture. A control experiment was performed by irradiating blood samples at 8 Gy.
# [2] = test system: T lymphocytes; test: Bleomycin-induced CD8 T-lymphocyte apoptosis, treatment from the start of blood cell culture (at least 50 hours contact), flow cytometry; format: cell-based, human; conditions: for T lymphocytes apoptosis rate, from the start of cell culture: same blood sample, 8 Gy irradiation control 28.2%
# Description: as §1, §2, §3, §4
# Two hundred microliters of blood were aliquoted into a 6-well plate containing 2 mL of RPMI-20% FCS-bleomycin, about 24 hours after blood collection. The cell culture media containing the different concentrations of bleomycin were made fresh just before starting the cell culture. After bleomycin incubation with blood cells for at least 50 hours (generally more than about 60 hours, in particular between 65 and 75 hours), samples were stained for flow cytometry analysis as described above.
# as §5
substance,measurement,setting,value
Bleomycin,"T lymphocytes apoptosis rate, 24 hours after cell culture",[1]; bleomycin 50 μg/mL,3.98%
same,"T lymphocytes apoptosis rate, 24 hours after cell culture",[1]; bleomycin 100 μg/ml,2.72%
same,"T lymphocytes apoptosis rate, 24 hours after cell culture",[1]; bleomycin 200 μg/ml,10.13%
same,"T lymphocytes apoptosis rate, 24 hours after cell culture",[1]; bleomycin 300 μg/ml,11.9%
same,"T lymphocytes apoptosis rate, 24 hours after cell culture",[1]; bleomycin 400 μg/ml,16.78%
same,Whether the apoptosis rate observed after 8 Gy irradiation is induced,"[1]; treatment 24 hours after blood cell culture, applied for less than 50 hours, 50 to 500 μg/mL","no bleomycin concentration, applied for less than 50 hours, induces the apoptosis rate observed after 8 Gy irradiation"
same,"T lymphocytes apoptosis rate, from the start of cell culture",[2]; bleomycin 50 μg/mL,12.47%
same,"T lymphocytes apoptosis rate, from the start of cell culture",[2]; bleomycin 100 μg/ml,19.14%
same,"T lymphocytes apoptosis rate, from the start of cell culture",[2]; bleomycin 200 μg/ml,23.44%
same,"T lymphocytes apoptosis rate, from the start of cell culture",[2]; bleomycin 300 μg/ml,26.32%
same,"T lymphocytes apoptosis rate, from the start of cell culture",[2]; bleomycin 400 μg/ml,30.68%
same,Bleomycin concentration achieving the apoptosis rate obtained after 8 Gy irradiation,[2]; treatment applied at the start of blood cell culture,lower than 300 μg/ml
